Results published in patent publication US20070238716A1, “STATIN STABILIZING DOSAGE FORMULATIONS” (priority 2006, published 2007).
Where a name gives a salt, the structure may show the parent alone. One block for each compound: values may come before it.

Experiment: Solution state stability of the hemi calcium salt of Formula I at various pH conditions
Assay type: physicochemical
Experimental: Solution state stability studies were performed on 7-[2-(4-fluorophenyl)-5-isopropyl-3-phenyl-4-[(4-hydroxymethylphenylamino) carbonyl]-pyrrol- 1-yl]-3,5-dihydroxy-heptanoic acid by solubilizing the hemi calcium salt of Formula I at a range of pH conditions and storing the solution for one or two weeks under different temperature conditions.

- pH at which the compound is stable in solution (conclusion from Table 1, more particularly pH 4.5 to pH 12): ≥ 4.5
Structure (SMILES): CC(C)c1c(C(=O)Nc2ccc(CO)cc2)c(-c2ccccc2)c(-c2ccc(F)cc2)n1CCC(O)CC(O)CC(=O)O (centres unmarked) [7-[2-(4-fluorophenyl)-5-isopropyl-3-phenyl-4-[(4-hydroxymethylphenylamino)carbonyl]-pyrrol-1-yl]-3,5-dihydroxy-heptanoic acid]

- Drug Content (pH 2.0 Buffer, 1 week, 2-8 °C): 0.21 mg/mL
- Drug Content (pH 2.0 Buffer, 1 week, 25 °C): 0.22 mg/mL
- Drug Content (pH 2.0 Buffer, 1 week, 50 °C): 0.14 mg/mL
- Drug Content (pH 2.0 Buffer, 2 Weeks, 2-8 °C): 0.19 mg/mL
- Drug Content (pH 2.0 Buffer, 2 Weeks, 25 °C): 0.18 mg/mL
- Drug Content (pH 2.0 Buffer, 2 Weeks, 50 °C): 0.09 mg/mL
- Drug Content (pH 2.0 Buffer, Initial): 0.42 mg/mL
- Drug Content (pH 4.5 Buffer, 1 week, 2-8 °C): 0.50 mg/mL
- Drug Content (pH 4.5 Buffer, 1 week, 25 °C): 0.50 mg/mL
- Drug Content (pH 4.5 Buffer, 1 week, 50 °C): 0.43 mg/mL
- Drug Content (pH 4.5 Buffer, 2 Weeks, 2-8 °C): 0.50 mg/mL
- Drug Content (pH 4.5 Buffer, 2 Weeks, 25 °C): 0.48 mg/mL
- Drug Content (pH 4.5 Buffer, 2 Weeks, 50 °C): 0.38 mg/mL
- Drug Content (pH 4.5 Buffer, Initial): 0.51 mg/mL
- Drug Content (pH 5.5 Buffer, 1 week, 2-8 °C): 0.50 mg/mL
- Drug Content (pH 5.5 Buffer, 1 week, 25 °C): 0.50 mg/mL
- Drug Content (pH 5.5 Buffer, 1 week, 50 °C): 0.45 mg/mL
- Drug Content (pH 5.5 Buffer, 2 weeks, 2-8 °C): 0.50 mg/mL
- Drug Content (pH 5.5 Buffer, 2 weeks, 25 °C): 0.48 mg/mL
- Drug Content (pH 5.5 Buffer, 2 weeks, 50 °C): 0.40 mg/mL
- Drug Content (pH 5.5 Buffer, Initial): 0.50 mg/mL
- Drug Content (pH 7.5 Buffer, 1 week, 2-8 °C): 0.50 mg/mL
- Drug Content (pH 7.5 Buffer, 1 week, 25 °C): 0.50 mg/mL
- Drug Content (pH 7.5 Buffer, 1 week, 50 °C): 0.45 mg/mL
- Drug Content (pH 7.5 Buffer, 2 Weeks, 2-8 °C): 0.49 mg/mL
- Drug Content (pH 7.5 Buffer, 2 Weeks, 25 °C): 0.49 mg/mL
- Drug Content (pH 7.5 Buffer, 2 Weeks, 50 °C): 0.37 mg/mL
- Drug Content (pH 7.5 Buffer, Initial): 0.50 mg/mL
- Drug Content (pH 9.0 Buffer, 1 week, 2-8 °C): 0.49 mg/mL
- Drug Content (pH 9.0 Buffer, 1 week, 25 °C): 0.49 mg/mL
- Drug Content (pH 9.0 Buffer, 1 week, 50 °C): 0.45 mg/mL
- Drug Content (pH 9.0 Buffer, 2 Weeks, 2-8 °C): 0.45 mg/mL
- Drug Content (pH 9.0 Buffer, 2 Weeks, 25 °C): 0.47 mg/mL
- Drug Content (pH 9.0 Buffer, 2 Weeks, 50 °C): 0.42 mg/mL
- Drug Content (pH 9.0 Buffer, Initial): 0.49 mg/mL
- Drug Content (pH 10.0 Buffer, 1 week, 2-8 °C): 0.49 mg/mL
- Drug Content (pH 10.0 Buffer, 1 week, 25 °C): 0.49 mg/mL
- Drug Content (pH 10.0 Buffer, 1 week, 50 °C): 0.45 mg/mL
- Drug Content (pH 10.0 Buffer, 2 Weeks, 2-8 °C): 0.49 mg/mL
- Drug Content (pH 10.0 Buffer, 2 Weeks, 25 °C): 0.47 mg/mL
- Drug Content (pH 10.0 Buffer, 2 Weeks, 50 °C): 0.44 mg/mL
- Drug Content (pH 10.0 Buffer, Initial): 0.49 mg/mL
- Drug Content (pH 12.0 Buffer, 1 week, 2-8 °C): 0.49 mg/mL
- Drug Content (pH 12.0 Buffer, 1 week, 25 °C): 0.49 mg/mL
- Drug Content (pH 12.0 Buffer, 1 week, 50 °C): 0.45 mg/mL
- Drug Content (pH 12.0 Buffer, 2 Weeks, 2-8 °C): 0.49 mg/mL
- Drug Content (pH 12.0 Buffer, 2 Weeks, 25 °C): 0.48 mg/mL
- Drug Content (pH 12.0 Buffer, 2 Weeks, 50 °C): 0.44 mg/mL
- Drug Content (pH 12.0 Buffer, Initial): 0.49 mg/mL
Structure (SMILES): CC(C)c1c(C(=O)Nc2ccc(CO)cc2)c(-c2ccccc2)c(-c2ccc(F)cc2)n1CCC(O)CC(O)CC(=O)O (centres unmarked) [hemi calcium salt of Formula I, 7-[2-(4-fluorophenyl)-5-isopropyl-3-phenyl-4-[(4-hydroxymethylphenylamino)carbonyl]-pyrrol-1-yl]-3,5-dihydroxy-heptanoic acid hemicalcium salt]
